Test results: US20120244567A1, “HUMAN EMBRYONIC STEM CELLS FOR HIGH THROUGHOUT DRUG SCREENING” (BUCK INSTITUTE FOR RESEARCH ON AGING, priority 2009, published 2012)
Where a name gives a salt, the structure may show the parent alone. Read-outs that look alike come from different tables or passages of the source.

Test system: dopaminergic neurons
Protocol: RNAs isolated from NSCs and neurons with and without drug treatments were hybridized to Illumina HumanRef-8 BeadChip (Illumina, Inc., San Diego, Calif., performed by Microarray core facility at the Burnham Institute for Medical Research). The Illumina array data were normalized by the quantile method, and then transformed log 2 ratio values for a zero mean for expression values of each gene across all samples. The statistical and bioinformatics analyses were conducted by using R and the bioconductor package (www.bioconductor.org). The gene set enrichment analysis was conducted using the GSEA software (www.broad.mit.edu/gsea).

[1] = Amiloride sensitive Na channels, 4 hours of exposure
[2] = Amine transporters, 4 hours of exposure
[3] = Ca activated K channels, 4 hours of exposure
[4] = Calcium channels, 4 hours of exposure
[5] = Cl channels, 4 hours of exposure
[6] = Delayed rectifier K channels, 4 hours of exposure
[7] = H ion transporters, 4 hours of exposure
[8] = Rectifier K channels, 4 hours of exposure
[9] = Voltage gated Na channels, 4 hours of exposure

CCCCc1oc2ccccc2c1C(=O)c1cc(I)c(OCCN(CC)CC)c(I)c1 [Amiodarone Hydrochloride]
ACCN1 gene expression, Treated DA Neuron [1]: 387.4
ACCN2 gene expression, Treated DA Neuron [1]: 862.7
ACCN3 gene expression, Treated DA Neuron [1]: 35.7
SLC1A2 gene expression, Treated DA Neuron [2]: 809.7
SLC1A3 gene expression, Treated DA Neuron [2]: 2926
SLC6A3 gene expression, Treated DA Neuron [2]: 23.4
SLC6A9 gene expression, Treated DA Neuron [2]: 36570.5
SLC6A12 gene expression, Treated DA Neuron [2]: 10.8
ATP1A1 gene expression, Treated DA Neuron (Amine transporters, first line for this gene, 4 hours of exposure): 426.9
ATP1A1 gene expression, Treated DA Neuron (Amine transporters, second line for this gene, 4 hours of exposure): 471
KCNMB1 gene expression, Treated DA Neuron [3]: 44.8
KCNN1 gene expression, Treated DA Neuron [3]: 48.4
KCNN2 gene expression, Treated DA Neuron [3]: 55.6
KCNN3 gene expression, Treated DA Neuron [3]: 181.7
CACNA1A gene expression, Treated DA Neuron [4]: 64.4
CACNA1C gene expression, Treated DA Neuron [4]: 146.9
CACNB2 gene expression, Treated DA Neuron [4]: 155.2
CACNG2 gene expression, Treated DA Neuron [4]: 123.8
CLCN2 gene expression, Treated DA Neuron [5]: 24
CLCN3 gene expression, Treated DA Neuron [5]: 541.2
CLCN6 gene expression, Treated DA Neuron [5]: 998.5
CLCN7 gene expression, Treated DA Neuron [5]: 1261
CLIC1 gene expression, Treated DA Neuron [5]: 22.9
KCNA5 gene expression, Treated DA Neuron [6]: 99.9
KCNB1 gene expression, Treated DA Neuron [6]: 145.4
KCNB2 gene expression, Treated DA Neuron [6]: 94.5
ATP5B gene expression, Treated DA Neuron [7]: 5217.1
ATP6V0A2 gene expression, Treated DA Neuron [7]: 131.3
ATP6V0D1 gene expression, Treated DA Neuron [7]: 2920.7
ATP6V1A gene expression, Treated DA Neuron [7]: 2621.5
ATP6V1B2 gene expression, Treated DA Neuron [7]: 724.8
SLC2A1 gene expression, Treated DA Neuron [7]: 87.1
SLC2A11 gene expression, Treated DA Neuron [7]: .9
SLC35B1 gene expression, Treated DA Neuron [7]: 1450.4
KCNC4 gene expression, Treated DA Neuron [8]: 58.7
KCND2 gene expression, Treated DA Neuron [8]: 269.9
KCNF1 gene expression, Treated DA Neuron [8]: 479.7
KCNG1 gene expression, Treated DA Neuron [8]: 351
KCNJ4 gene expression, Treated DA Neuron [8]: 66.1
KCNJ6 gene expression, Treated DA Neuron [8]: 297.7
KCNJ11 gene expression, Treated DA Neuron [8]: 44.4
KCNQ3 gene expression, Treated DA Neuron [8]: 23.2
KCNQ2 gene expression, Treated DA Neuron (Rectifier K channels, first line for this gene, 4 hours of exposure): 1753.5
KCNQ2 gene expression, Treated DA Neuron (Rectifier K channels, second line for this gene, 4 hours of exposure): 434.4
SCN1A gene expression, Treated DA Neuron [9]: 115.6
SCN3A gene expression, Treated DA Neuron [9]: 60.4
SCN9A gene expression, Treated DA Neuron [9]: 245.7
AFF1 expression, Treated Neuron (four hours after exposure): 1
ARID3A expression, Treated Neuron (four hours after exposure): 201
ASCL2 expression, Treated Neuron (four hours after exposure): 1
DDIT3 expression, Treated Neuron (four hours after exposure): 170
DLX2 expression, Treated Neuron (four hours after exposure): 1
E2F2 expression, Treated Neuron (four hours after exposure): 63.2
E2F7 expression, Treated Neuron (four hours after exposure): 43
E2F8 expression, Treated Neuron (four hours after exposure): 1
EGR1 expression, Treated Neuron (four hours after exposure): 109
EGR2 expression, Treated Neuron (four hours after exposure): 1
ELF4 expression, Treated Neuron (four hours after exposure): 1
ELF5 expression, Treated Neuron (four hours after exposure): 1
ELK3 expression, Treated Neuron (four hours after exposure): 1
ELK4 expression, Treated Neuron (four hours after exposure): 1
EN1 expression, Treated Neuron (four hours after exposure): 1
ERG expression, Treated Neuron (four hours after exposure): 1
ETS1 expression, Treated Neuron (four hours after exposure): 1
ETV1 expression, Treated Neuron (four hours after exposure): 1
ETV4 expression, Treated Neuron (four hours after exposure): 1
FLI1 expression, Treated Neuron (four hours after exposure): 11.3
FOS expression, Treated Neuron (four hours after exposure): 1980
FOSB expression, Treated Neuron (four hours after exposure): 346
FOXA2 expression, Treated Neuron (four hours after exposure): 1
FOXC1 expression, Treated Neuron (four hours after exposure): 32.6
FOXD1 expression, Treated Neuron (four hours after exposure): 1
FOXF2 expression, Treated Neuron (four hours after exposure): 1
FOXL2 expression, Treated Neuron (four hours after exposure): 1
FOXM1 expression, Treated Neuron (four hours after exposure): 27.7
GATA2 expression, Treated Neuron (four hours after exposure): 1
GLI2 expression, Treated Neuron (four hours after exposure): 5.2
HCLS1 expression, Treated Neuron (four hours after exposure): 1
HEY2 expression, Treated Neuron (four hours after exposure): 1
HIRA expression, Treated Neuron (four hours after exposure): 24.2
HMGB2 expression, Treated Neuron (four hours after exposure): 163
HOXA13 expression, Treated Neuron (four hours after exposure): 1
HOXB1 expression, Treated Neuron (four hours after exposure): 1
HOXB2 expression, Treated Neuron (four hours after exposure): 24
HOXB3 expression, Treated Neuron (four hours after exposure): 1
HOXB4 expression, Treated Neuron (four hours after exposure): 1
HOXB5 expression, Treated Neuron (four hours after exposure): 1
HOXD3 expression, Treated Neuron (four hours after exposure): 1
L3MBTL expression, Treated Neuron (four hours after exposure): 97.7
LHX8 expression, Treated Neuron (four hours after exposure): 1
MEF2C expression, Treated Neuron (four hours after exposure): 49.8
MEOX1 expression, Treated Neuron (four hours after exposure): 1
MSX2 expression, Treated Neuron (four hours after exposure): 1
MYEF2 expression, Treated Neuron (four hours after exposure): 25.3
NFATC3 expression, Treated Neuron (four hours after exposure): 1
NFATC4 expression, Treated Neuron (four hours after exposure): 1
NFKB2 expression, Treated Neuron (four hours after exposure): 5.3
NR1D2 expression, Treated Neuron (four hours after exposure): 1
NR2C2 expression, Treated Neuron (four hours after exposure): 5.7
NR4A2 expression, Treated Neuron (four hours after exposure): 212
NRK expression, Treated Neuron (four hours after exposure): 1
PAX8 expression, Treated Neuron (four hours after exposure): 1
PBX2 expression, Treated Neuron (four hours after exposure): 1
PRDM1 expression, Treated Neuron (four hours after exposure): 1
PRRX2 expression, Treated Neuron (four hours after exposure): 1
RELB expression, Treated Neuron (four hours after exposure): 31.9
RUNX1 expression, Treated Neuron (four hours after exposure): 1
SALL1 expression, Treated Neuron (four hours after exposure): 1
SIX4 expression, Treated Neuron (four hours after exposure): 5.7
STAT6 expression, Treated Neuron (four hours after exposure): 1
TAF5L expression, Treated Neuron (four hours after exposure): 17.5
TAF13 expression, Treated Neuron (four hours after exposure): 1
TBX2 expression, Treated Neuron (four hours after exposure): 1
TEAD4 expression, Treated Neuron (four hours after exposure): 1
TEF expression, Treated Neuron (four hours after exposure): 23.5
TGIF1 expression, Treated Neuron (four hours after exposure): 1
TP53 expression, Treated Neuron (four hours after exposure): 23.7
ZNF85 expression, Treated Neuron (four hours after exposure): 5.6
ZNF197 expression, Treated Neuron (four hours after exposure): 5.1
ZNF274 expression, Treated Neuron (four hours after exposure): 1
ZNF367 expression, Treated Neuron (four hours after exposure): 1
ZSCAN29 expression, Treated Neuron (four hours after exposure): 1
